According to PubChem BioAssay (NCI):
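Where inhibition never reached the appropriate level, the endpoint shown equals the highest concentration tested. Otherwise, values were interpolated linearly from a five-concentration, 48-hour dose response in 96-well plates. GI50 = concentration required for 50% inhibition of growth. TGI: concentration producing complete growth inhibition.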

How the values were obtained:
Experiment in all cases: NCI tumour cell line growth inhibition, 48 h
UACC-257 melanoma = tested on: UACC-257 melanoma
U251 CNS = tested on: U251 CNS
MDA-MB-435 = tested on: MDA-MB-435
MOLT-4 leukemia = tested on: MOLT-4 leukemia
SR leukemia = tested on: SR leukemia
K-562 leukemia = tested on: K-562 leukemia
PC-3 prostate = tested on: PC-3 prostate
MALME-3M melanoma = tested on: MALME-3M melanoma
HCC-2998 colon = tested on: HCC-2998 colon
BT-549 breast = tested on: BT-549 breast
SK-OV-3 ovarian = tested on: SK-OV-3 ovarian
SNB-19 CNS = tested on: SNB-19 CNS
KM12 colon = tested on: KM12 colon
TK-10 renal = tested on: TK-10 renal
IGROV1 ovarian = tested on: IGROV1 ovarian
SW-620 colon = tested on: SW-620 colon
SF-295 CNS = tested on: SF-295 CNS
SF-539 CNS = tested on: SF-539 CNS
NCI-H23 lung = tested on: NCI-H23 lung
ACHN renal = tested on: ACHN renal
HOP-92 NSCLC = tested on: HOP-92 NSCLC
OVCAR-5 ovarian = tested on: OVCAR-5 ovarian
SK-MEL-5 melanoma = tested on: SK-MEL-5 melanoma
OVCAR-4 ovarian = tested on: OVCAR-4 ovarian
OVCAR-3 ovarian = tested on: OVCAR-3 ovarian
SN12C renal = tested on: SN12C renal
COLO 205 colon = tested on: COLO 205 colon
MDA-MB-231 breast = tested on: MDA-MB-231 breast
786-0 renal = tested on: 786-0 renal
CAKI-1 renal = tested on: CAKI-1 renal
HCT-116 colon = tested on: HCT-116 colon
M14 melanoma = tested on: M14 melanoma
LOX IMVI melanoma = tested on: LOX IMVI melanoma
NCI-H226 lung = tested on: NCI-H226 lung
EKVX NSCLC = tested on: EKVX NSCLC
UO-31 renal = tested on: UO-31 renal
OVCAR-8 ovarian = tested on: OVCAR-8 ovarian
SK-MEL-2 melanoma = tested on: SK-MEL-2 melanoma
DU-145 prostate = tested on: DU-145 prostate
NCI/ADR-RES ovarian = tested on: NCI/ADR-RES ovarian
SK-MEL-28 melanoma = tested on: SK-MEL-28 melanoma
CCRF-CEM leukemia = tested on: CCRF-CEM leukemia
HT29 colon = tested on: HT29 colon
SF-268 CNS = tested on: SF-268 CNS
NCI-H460 lung = tested on: NCI-H460 lung
RPMI-8226 leukemia = tested on: RPMI-8226 leukemia
T-47D breast = tested on: T-47D breast
MCF7 breast = tested on: MCF7 breast
HOP-62 NSCLC = tested on: HOP-62 NSCLC
HS 578T breast = tested on: HS 578T breast
NCI-H522 lung = tested on: NCI-H522 lung
HCT-15 colon = tested on: HCT-15 colon
A549 NSCLC = tested on: A549 NSCLC
SNB-75 CNS = tested on: SNB-75 CNS

For `Clc1ccc2c(N3CCC(CCC4CCN(c5ncnc6cc(Cl)ccc56)CC4)CC3)ncnc2c1`, which GI50 (UACC-257 melanoma) is on record?
Its GI50 is 61 µM.

How did the TGI (U251 CNS) turn out when `COc1ccc2c(c1)c1c(n2CCN2CCCCC2)-c2ccccc2CC1` was run?
The TGI was 30.5 µM.

And the TGI (MDA-MB-435)?
Its TGI is 38.3 µM.

And the TGI (MOLT-4 leukemia)?
The TGI was 40.7 µM.

And the TGI (SR leukemia)?
Its TGI is 42.4 µM.

And the TGI (K-562 leukemia)?
Its TGI is 45.9 µM.

And the TGI (PC-3 prostate)?
The TGI was 30.3 µM.

What about the TGI (MALME-3M melanoma) of the same compound?
The TGI was 28.3 µM.

And the TGI (HCC-2998 colon)?
The TGI was 20.7 µM.

What about the TGI (BT-549 breast) of the same compound?
The TGI was 41.5 µM.

And the TGI (SK-OV-3 ovarian)?
The TGI was 40.9 µM.

And the TGI (SNB-19 CNS)?
The TGI was 46.9 µM.

What about the TGI (KM12 colon) of the same compound?
The TGI was 27.3 µM.

What about the TGI (TK-10 renal) of the same compound?
Its TGI is 27.6 µM.

And the TGI (IGROV1 ovarian)?
The TGI was 30.3 µM.

What about the TGI (SW-620 colon) of the same compound?
Its TGI is 37.8 µM.

And the TGI (SF-295 CNS)?
Its TGI is 28.4 µM.

And the TGI (SF-539 CNS)?
Its TGI is 27.4 µM.

And the TGI (NCI-H23 lung)?
Its TGI is 31.9 µM.

What about the TGI (ACHN renal) of the same compound?
The TGI was 33.3 µM.

And the TGI (HOP-92 NSCLC)?
The TGI was 31.9 µM.

And the TGI (OVCAR-5 ovarian)?
Its TGI is 31.2 µM.

What about the TGI (SK-MEL-5 melanoma) of the same compound?
Its TGI is 37.3 µM.

And the TGI (OVCAR-4 ovarian)?
Its TGI is 42 µM.

What about the TGI (OVCAR-3 ovarian) of the same compound?
Its TGI is 33.8 µM.

And the TGI (SN12C renal)?
Its TGI is 33.5 µM.

What about the TGI (COLO 205 colon) of the same compound?
The TGI was 29.5 µM.

What about the TGI (MDA-MB-231 breast) of the same compound?
Its TGI is 31.8 µM.

What about the TGI (786-0 renal) of the same compound?
The TGI was 34.5 µM.

What about the TGI (CAKI-1 renal) of the same compound?
Its TGI is 26.9 µM.

And the TGI (HCT-116 colon)?
Its TGI is 31 µM.

And the TGI (M14 melanoma)?
The TGI was 28.7 µM.

And the TGI (LOX IMVI melanoma)?
Its TGI is 40.4 µM.

What about the TGI (NCI-H226 lung) of the same compound?
Its TGI is 19.3 µM.

What about the TGI (EKVX NSCLC) of the same compound?
The TGI was 36.7 µM.

What about the TGI (UO-31 renal) of the same compound?
Its TGI is 26.1 µM.

What about the TGI (OVCAR-8 ovarian) of the same compound?
Its TGI is 29 µM.

What about the TGI (SK-MEL-2 melanoma) of the same compound?
Its TGI is 29.3 µM.

What about the TGI (DU-145 prostate) of the same compound?
The TGI was over 100 µM.

And the TGI (NCI/ADR-RES ovarian)?
Its TGI is 33.2 µM.

What about the TGI (SK-MEL-28 melanoma) of the same compound?
The TGI was 38.5 µM.

What about the TGI (CCRF-CEM leukemia) of the same compound?
Its TGI is 47.4 µM.

And the TGI (HT29 colon)?
Its TGI is 17.2 µM.

What about the TGI (SF-268 CNS) of the same compound?
The TGI was 30 µM.

What about the TGI (NCI-H460 lung) of the same compound?
The TGI was 28.3 µM.

And the TGI (RPMI-8226 leukemia)?
The TGI was 56.1 µM.

And the TGI (T-47D breast)?
Its TGI is 35.6 µM.

And the TGI (MCF7 breast)?
The TGI was 30.2 µM.

What about the TGI (HOP-62 NSCLC) of the same compound?
The TGI was 34.7 µM.

What about the TGI (HS 578T breast) of the same compound?
The TGI was 28.5 µM.

And the TGI (NCI-H522 lung)?
The TGI was 21.8 µM.

What about the TGI (UACC-257 melanoma) of the same compound?
Its TGI is 32.1 µM.

And the TGI (HCT-15 colon)?
Its TGI is 24.5 µM.

And the TGI (A549 NSCLC)?
Its TGI is 36.6 µM.

What about the TGI (SNB-75 CNS) of the same compound?
Its TGI is 35.1 µM.
